Broadly, the pKi is the negative decadic logarithm of the Ki, by convention in mol/L. By pEC50 is commonly meant −log10 of the EC50, conventionally taken in molar units.

Assay [1] concerns the target T1, CB1 receptors in mouse brain tissue (Mus musculus, UniProt P47746).
T1 construct: Whole mouse brain membranes were prepared as described by Thomas et al., 2004; from tissue; host or cells: whole mouse brain membranes
Nature of the assay: [3H]CP55940 radioligand displacement assay, mouse whole brain membranes. The assay is classed as binding. As to the method:
(§1) Whole mouse brain membranes were prepared as described by Thomas et al., 2004. CHO cells were stably transfected with cDNA encoding human cannabinoid CB2 receptors and were maintained at 37° C. and 5% CO2 in Dulbecco's Modified Eagle's Medium nutrient mixture.
(§2) The assays were carried out with the established CB1 and CB2 cannabinoid receptor agonist CP55940. This was radiolabelled to form [^3H]CP55940.
(§3) Binding of the radiolabelled compound was initiated by the addition of either the brain membranes (33 μg protein per tube) or the transfected hCB2 cells (25 μg protein per tube).
(§4) All assays were performed at 37° C. for 60 min before termination by addition of ice-cold wash buffer (50 mM Tris buffer, 1 mg ml^−1 bovine serum albumin, pH 7.4) and vacuum filtration using a 24-well sampling manifold and GF/B filters that had been soaked in wash buffer at 4° C. for at least 24 h.
(§5) The test compounds were also tested to determine whether they were able to displace the agonist CP55940 from the binding site of the CB1 or CB2 receptor. The Ki-value that resulted from this investigation gives an insight into how strongly the test compound competes with the agonist for the binding site.
(Loss of bound radioactivity is the signal in a displacement assay; it reports binding, not function.)

Assay [2] has as its system CB1 receptors in mouse brain tissue. Kind of assay: [35S]GTPγS binding assay, mouse brain membranes. The class given is biochemical. The conditions noted are these: conclusion from the example data. As to the method: as §1
The assays were carried out with GTPγS binding buffer (50 mM Tris-HCl; 50 mM Tris-Base; 5 mM MgCl2; 1 mM EDTA; 100 mM NaCl; 1 mM DTT; 0.1% BSA) in the presence of [^35S]GTPγS and GDP, in a final volume of 500 μl. Binding was initiated by the addition of [^35S]GTPγS to the tubes. The drugs were incubated in the assay for 60 min at 30° C. The reaction was terminated by a rapid vacuum filtration method using Tris buffer (50 mM Tris-HCl; 50 mM Tris-Base; 0.1% BSA), as described previously, and the radioactivity was quantified by liquid scintillation spectrometry.
The agonism of the CB1 or CB2 receptors by CP55940 results in a response in the cell. This response is the binding of [^35S]GTPγS to the cell membrane.
Changes in the response in the presence of the test compound can be measured in order to determine whether the compound is acting as an agonist, a neutral antagonist or an inverse agonist. An agonist will increase the response, a neutral antagonist will have no effect on the response and an inverse agonist will stop or reverse the response. […]
On the technique in general: GTPγS is a poorly hydrolysed GTP analogue; its binding reports G protein activation.

In assay [3] the target is T2, human cannabinoid CB2 receptors (Homo sapiens, UniProt P34972).
T2 construct: expressed in transfected cells; host or cells: CHO cells, stably transfected
Kind of assay: [3H]CP55940 radioligand displacement assay, hCB2-CHO cell membranes. Particulars: membranes prepared from hCB2-CHO cells; 37° C., 60 min; read-out: Ki, displacement of [3H]CP55940 from specific binding sites. As to the method: as §1, §2, §3, §4, §5

Assay [4] has as its target T2, human cannabinoid CB2 receptors. Nature of the assay: Inhibition of forskolin-stimulated cyclic AMP production in hCB2-CHO cells. The class given is cell-based. Set-up: Emax, inhibition of forskolin-stimulated cyclic AMP production: unit not given here.

pEC50, pKi: −log10 of the molar value.

T2 sequence (P34972 whole entry): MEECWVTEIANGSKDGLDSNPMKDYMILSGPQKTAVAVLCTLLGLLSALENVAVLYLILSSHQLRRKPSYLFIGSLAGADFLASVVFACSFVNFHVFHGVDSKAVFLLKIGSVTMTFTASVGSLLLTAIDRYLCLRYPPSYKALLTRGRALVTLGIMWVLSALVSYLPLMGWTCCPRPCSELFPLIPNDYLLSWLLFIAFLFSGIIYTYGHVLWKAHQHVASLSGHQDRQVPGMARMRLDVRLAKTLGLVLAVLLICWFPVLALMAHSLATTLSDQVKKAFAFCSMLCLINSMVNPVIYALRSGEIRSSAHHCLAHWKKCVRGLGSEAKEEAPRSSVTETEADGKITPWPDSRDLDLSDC
T1 sequence (P47746 whole entry): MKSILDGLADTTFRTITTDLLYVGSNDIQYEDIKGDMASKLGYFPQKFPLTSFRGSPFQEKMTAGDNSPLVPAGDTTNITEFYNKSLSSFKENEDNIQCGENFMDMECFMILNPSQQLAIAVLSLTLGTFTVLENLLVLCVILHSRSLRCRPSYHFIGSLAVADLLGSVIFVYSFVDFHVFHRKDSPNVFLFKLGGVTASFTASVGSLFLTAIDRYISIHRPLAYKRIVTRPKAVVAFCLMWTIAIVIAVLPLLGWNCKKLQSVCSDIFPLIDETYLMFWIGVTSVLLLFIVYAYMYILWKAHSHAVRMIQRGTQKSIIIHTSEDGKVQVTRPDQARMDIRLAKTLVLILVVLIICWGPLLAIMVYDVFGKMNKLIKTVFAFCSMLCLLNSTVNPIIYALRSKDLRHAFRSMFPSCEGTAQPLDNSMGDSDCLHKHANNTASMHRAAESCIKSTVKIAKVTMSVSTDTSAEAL

On to `CCCCCc1cc(O)c(C/C=C(\C)CCC=C(C)C)c(O)c1` [CBG, cannabigerol], for which, in assay [1], the pKi was 6.36. Besides, the “functional character at CB1 receptor” value in assay [2] was “partial agonist”. Moreover, the pKi in assay [3] was 6.47. Also, the “functional character at CB2 receptor” value in assay [4] (conclusion from the example data) is listed as “partial agonist”. In addition, in assay [4] (hCB2-CHO cells, 5 μM forskolin), the negative logarithm of the EC50 (pEC50) is 6.41 and the “Emax, inhibition of forskolin-stimulated cyclic AMP production” value turned out to be 28.3. For the same molecule, the “efficacy relative to CP55940 in inhibiting forskolin-stimulated cyclic AMP production” value in assay [4] (hCB2-CHO cells, 5 μM forskolin, submicromolar concentrations) is “efficacy less than that of CP55940”.

The record behind these values is US20100292345A1, “THERAPEUTIC USES OF CANNABIGEROL” (GW PHARMA LIMITED, priority 2007, published 2010).
